According to patent US20040048823A1 (priority 2000, published 2004):

Legend:
[1] = system: cancer cell lines (Malme3M, SNU1, MDAMB231, MOLT4, TCCSUP, Hep3B); assay: Mycolactone-induced cancer cell death under light microscope; format: cell-based; conditions: mycolactone final 1 μg/ml, 72 hours, compared to not-treated
Description: Cancer cell lines used for the experiment was as follows; 2 skin cancer cell lines (Malme3M and SK-Mel-24), 1 breast cancer cell line (MDAMB231), 1 leukemia cell line (MOLT4), 1 stomach cancer cell line (SNU1); 1 bladder cancer cell line (TCCSUP), 8 hepatoma cell lines (SK-Hep1, Hep3B, SNU182, SNU387, SNU398, SNU449, SNU475, and HepG2), 2 colon cancer cell lines (HT-29 and DLD-1), and 1 oral cavity cancer cell line (SCC-15). Cancer cells were cultured in RPMI1640 media containing 10% fetal bovine serum, penicillin (10 unit/ml), and streptomycin (100 μg/ml) in 75 cm^2 flask at 37° C. in the presence of 5% CO2.
After cultivation of cancer cells ([…]) in 6-well plate for 24 hours, mycolactone (final 1 μg/ml) was added and the cell morphology was observed after 72 hours under light microscope. Cancer cells became round up and died after mycolactone treatment.
FIGS. (1a to 1f) show the results in skin cancer (Malme3M), stomach cancer (SNU1), breast cancer (MDAMB231), leukemia (MOLT4), bladder cancer (TCCSUP), and hepatoma (Hep3B). The morphological change of colon and oral cavity cancers is not shown.

[2] = system: HUVEC (Human umbilical vein endothelial cell); assay: Tube formation assay (In Vitro Angiogenesis Assay Kit); format: cell-based
Description: HUVEC (Human umbilical vein endothelial cell, American Type Culture Collection, Manassas, Va.) cells were maintained in HAM's F-12K nutrient mixture (Sigma, St. Louis, Mo.) with 10% fetal bovine serum and endothelial cell growth supplement (Sigma, St. Louis, Mo.). Cells were plated onto a 1% gelatinized plastic surface and incubated in the presence of 5% CO2 at 37° C. Tube formation assay was performed using an In Vitro Angiogenesis Assay Kit. (Chemicon, Temecula, Calif.) with following procedures. A 50 μl of the Diluent Buffer-ECMatrix solution mixture was transferred to 96-well tissue culture plate and kept at 37° C. for 1 hour for solidification of the matrix solution. HUVEC cells were seeded onto the surface of the polymerized ECMatrix in each well and incubated in the presence of ethanol (control) or mycolactone (containing 1% of ethanol).

murine J779 cell line = conditions: cited from earlier work
murine L929 cell line = conditions: cited from earlier work
Hep3B cancer cells = assay: Morphological change by transmission electron microscopy; format: cell-based, human; conditions: mycolactone 1 μg/ml, 24 hours
Description: Morphological change of Hep3B cancer cells was observed by transmission electron microscopy (hereinafter, TEM) Cancer cells (5×10^6) were cultured and treated with mycolactone (1 μg/ml). Cell were collected after 24 hours and fixed with 2.5% glutaraldehyde. The sample was treated with OsO4, dehydrated with ethanol, and embedded to […].

[3] = system: Hep3B human hepatoma cells transplanted to nude mice; assay: In vivo anticancer effect in nude mice
Description: Hep3B human hepatoma cells were transplanted to nude mice and tumor growth was induced for 2 to 3 weeks. Then, mycolactone was injected to the tumor tissue by 4-3 days method, that is, injection for 4 days and rest for 3 days. PBS solution (50 μl) with or without mycolactone (20 μg) was injected to tumor of treatment (T) or control (C) mouse, respectively. The tumor volume was estimated by measuring both long and short diameters. The tumor volume at the day of first injection was 101.3 mm^3 (C) or 105.9 mm^3 (T).

[4] = system: CPP32 caspase and poly-ADP-ribose polymerase in Hep3B cancer cells; assay: Western blot of CPP32 caspase activation and poly-ADP-ribose polymerase cleavage; format: cell-based, human; conditions: mycolactone final 1 μg/ml
Description: CPP32 caspase activation and following cleavage of poly-ADP-ribose polymerase, typical biochemical phenomena of apoptosis, were examined by Western-blotting. Hep3B cancer cells (5×10^6) were cultured and treated with mycolactone (final 1 μg/ml). Cells were collected after 2, 4, 8, 12, 24, or 48 hours and Western blot was performed with anti-CPP32 antibody (Oncogene, Mass., USA) or anti-poly-ADP-ribose polymerase antibody (Enzyme Systems Products, CA, USA). Protein preparation was performed as follows. Cells were suspended in 400 μl of lysis buffer (125 mM Tris-HCl [pH 6.8], 20% glycerol, 2% SDS, and 10% β-mercaptoethanol), vortexed for 30 seconds, and kept at 95° C. for 5 minutes Cell lysates were separated on a 10% SDS-polyacrylamide gel and transferred to nitrocellulose membrane. Antibody reaction was performed with the antibodies describe above. CPP32 caspase activation was started at 4 hours and maintained until 24 hours, while the cleavage of poly-ADP-ribose polymerase was started at 8 hours after mycolactone treatment. […] Pro-CPP32 and Active CPP32 as shown on left are CPP32 caspase (the caspase 3) before and after activation, respectively; PARP is poly-ADP-ribose polymerase; cleaved PARP is cleaved poly-ADP-ribose polymerase.

[5] = system: bcl-2 family genes in Hep3B cells; assay: Ribonuclease protection assay (RPA) of bcl-2 family gene mRNA; format: cell-based, human
Description: To find target genes of mycolactone, mRNA transcription levels of bcl-2 family genes were examined. Total RNA was prepared from mycolactone-treated Hep3B cells and the expression of 7 genes belonging to bcl-2 family by ribonuclease protection assay (RPA). Total RNA was prepared with RNeasy minikit (Qiagen Inc., Chatsworth, Calif.) as described below. Mycolactone treated cancer cells were collected and washed with PBS. Cells were suspended in lysis buffer containing β-mercaptoethanol. Cells were passed through a 20-G syringe for more than 5 times. Equal volume of 70% ethanol was added and the suspension was mixed well. The suspension was applied to RNeasy mini spin column. The column was centrifuged at 10,000 rpm for 15 seconds and washed 2 times with washing buffer plus PRE buffer. RNA attached to the column was eluted with RNase-free distilled water. RNA was stored at −70° C. before use.
The mRNA expression profile of bcl-2 family genes was examined by RPA using multi-probe RNase Protection Assay System (PharMingen, CA, USA) with the following procedures. Specific RNA probe labeled with radioisotope is synthesized and used for hybridization with the RNA prepared from each sample. After removal of single-stranded RNA that is not hybridized with the probe and the residual riboprobe, the sample is electrophoresed on a denaturing polyacrylamide gel. After autoradiography, the mRNA expression was analyzed through measuring the density of hybridized bands.
RPA is a 3-Step Procedure
1). Synthesis of probe: Probe is synthesized by incubating transcription mixture solution ([…], 1 μl GACU pool, 2 μl DTT, 4 μl 5× transcription buffer, 1 μl RPA template set, 1 μlA T7 polymerase) at 37° C. for 1 hour. The reaction was stopped by adding 2 μl of DNase. Probe synthesis was completed by phenol treatment and ethanol precipitation The precipitated probe was dissolved in 50 μl of hybridization buffer.
2) RNA preparation and hybridization: Total RNA prepared (10-20 μg) was kept at −70° C. for 15 minutes and dried completely in vacuum evaporator. Hybridization was performed by the following reactions; addition of 8 μl of hybridization buffer, vortexing and brief centrifuge; addition and mixing of 2 μl of probe diluted at about 3×10^5 cpm/μl; addition of mineral oil. Hybridization mixture was kept briefly at 90° C., then incubated at 56° C. for 12 to 16 hours. Hybridization was completed by incubating the mixture at 37° C. for 15 minutes.
3) RNase treatment, electrophoresis, and autoradiography: RNase mixture (100 μl) was added to the hybridization mixture and the non-hybridized RNA was removed by incubating at 30° C. for 45 minutes. RNase digestion was terminated by adding proteinase K mixture solution. After phenol treatment and ethanol precipitation, the sample was dried. The sample was nixed with 5 μl of 1× loading buffer, heated at 90° C. for 3-minutes, kept on ice, electrophoresed ort a denaturing polyacrylamide gel, dried, and exposed to X-ray film.

[6] = system: Rb protein in SNU475 (Rb-positive cancer cell line); assay: Western blot of Rb protein expression after oligonucleotide transfection; format: cell-based, human; conditions: SNU475 transfected with 1 uM oligonucleotide, compared to sense Rb oligonucleotide transfectants
Description: An Rb-positive cancer cell SNU475 was cultured overnight in 6-well plate (5×10^6 cancer cells per well) with RPMI1640 medium. Sense or antisense Rb oligonucleotide, as described in Example 4, was transfected to the cultured cancer cells using Lipofectamine-PLUS (Gibco BRL, Grand Island, N.Y.) with the following procedures. Sense or antisense Rb oligonucleotide was diluted (final 1 uM) in fetal bovine serum-free RPMI1640 medium. PLUS reagent (Gibco BRL, NY, USA) was added, mixed well, and incubated at room temperature for 15 minutes. During this incubation, Lipofectamine was diluted in fetal bovine serum-fee RPMI1640 medium in separate test tubes. After 15 minutes, 2 solutions were mixed well and incubated at room temperature for 30 minutes for induction of oligonucleotide-Lipofectamine complex formation. During this incubation, the medium in overnight culture of the cancer cells was changed with fresh fetal bovine serum-free RPMI1640 medium. The solution containing oligonucleotide-Lipofectamine complex was carefully dropped on each culture plate and incubated at 37° C. for 3 hours. […]
Nuclear protein fraction was prepared to examine the Rb expression in SNU475 cell line transfected with sense or antisense Rb oligonucleotide by Western blotting. […] The protein concentration in the supernatant was determined and used for Western blotting. […]

## CC(=C\C=C\C(C)=C\[C@H](O)[C@@H](O)C[C@H](C)O)/C=C(C)/C=C/C(=O)O[C@H]1CCCC(=O)O[C@@H]([C@@H](C)C/C(C)=C/[C@@H](C)[C@H](O)C[C@@H](C)O)C/C=C(\C)C[C@@H]1C [mycolactone]
[1]
  cancer cell death, cell morphology under light microscope: Significant cell death
[2]; mycolactone 1 μg
  inhibition of tube formation maintained until: 7.5 h
[2]; mycolactone 1 μg, after 4 hour
  tube formation: inhibited
[2]; mycolactone 5 μg, after 4 hours
  tube formation: almost completely inhibited
Murine J779 cell line; J779, prolonged treatment
  cell death with prolonged treatment: apoptosis
Murine J779 cell line; J779
  time to G1 cell cycle arrest: ≤ 48 h
Murine L929 cell line; L929, prolonged treatment
  cell death with prolonged treatment: apoptosis
Murine L929 cell line; L929
  cytopathic effects: detaching of cells from culture plates and cell rounding-up
  time to G1 cell cycle arrest: ≤ 48 h
Hep3B cancer cells
  morphology by TEM: typical apoptosis morphologies
[3]; day 45, T mouse
  tumor tissue inside the body at sacrifice: not to have any tumor tissue
[3]; first week, 20 μg injected into tumor, 4 days on, 3 days rest
  tumor, treated (T) versus control (C) mouse: no significant difference
[3]; fourth week, T mouse, 20 μg injected into tumor
  tumor: disappeared
[3]; second week, T mouse, 20 μg injected into tumor, 105.9 mm^3 at first injection
  tumor volume: 63.8 mm^3
[3]; third week, T mouse, 20 μg injected into tumor
  tumor volume: 20.8 mm^3
[3]; until the day 45, T mouse
  condition of the treated mouse: healthy
[4]
  CPP32 caspase activation maintained until: 24 h
  CPP32 caspase activation started at: 4 h
  cleavage of poly-ADP-ribose polymerase started at: 8 h
[4]; after 48 hours
  cleavage of poly-ADP-ribose polymerase: completely cleaved
[5]
  mRNA expression of bcl-2: very low mRNA expression without significant change
  mRNA expression of bcl-w: No change
[5]; after 4 hours, maintained until 24 hours
  mRNA expression of mcl-1: decreased slowly
[5]; at 2 hour
  mRNA expression of mcl-1: increased transiently
[5]; starting at 8 hours until 24 hours
  mRNA expression of bcl-XL: decrease
[5]; until 24 hours after treatment
  mRNA expression of pro-apoptotic genes (bad, bak, and bax): no change

## antisense Rb oligonucleotide: phosphorothioate-backbone antisense oligonucleotide targeting the protein initiation codon region of human Rb mRNA (antisense GGGTTTTGGGCGGCATGA; all phosphorothioate, sugars by position and methylation of C not given here)
[6]
  Rb protein expression: Significant time-dependent decrease
